In one assay the test system is MCF-7 cells. The experiment in a line: MTT cytotoxicity assay on MCF-7 cells. In kind it is cell-based, human. The settings on record: for IC50: MTT, 48 h incubation, IC50 ± SD, three experiments in triplicate; for Selectivity Index (SI): SI = IC50 on MCF-10 cells/IC50 on MCF-7 cells. The procedure:
(§1) In this study, we wondered whether semi-synthetic compounds have potential antitumoral properties against BC. Therefore, we were interested in investigating the effect of the compounds on the MCF-7 cell line. Firstly, we studied the effect on cell viability using a colorimetric MTT assay, which was performed to quantify the cytotoxic activity; each compound was evaluated at different concentrations (500−100−20−4−0.8−0.16−0.032−0 µM). Daunorubicin was also used as a positive control for comparison with a reference drug. […] Although the MCF-10 cell line provides a useful selectivity model, it may not fully represent the varying sensitivities of different normal cell types within a multicellular organism. The SI value indicates the ratio of toxicity in mammalian host cells to that in a tumoral cell. The data obtained in response to different concentrations of compounds were used to calculate the IC50 and corresponding SI values, as shown in Table 1.
(§2) The American Type Culture Collection (Rockville, MD, USA) supplied the following experimental cell lines: MCF-7, a human breast cancer cell line, and MCF-10A, a human epithelial breast cell line (ATCC N° CRL-10317). Both cell lines were grown in DMEM-F12 medium containing 10% FCS, 100 U/mL penicillin, 100 μg/mL streptomycin, and 1 mM glutamine. The cells were seeded at a concentration of 100 μL per well at a plating density of 3 × 10^3 cells/well and incubated for 24 h at 37 °C under 5% humidified CO2 to enable attachment. The cells were then treated with varying concentrations of synthesized compounds for […] under the same conditions. The compound stock solution was prepared in DMSO, and the final concentration of DMSO was kept at 0.1%. Control cultures were treated with only 1% ethanol.
(§3) Cells from the MCF-7 and MCF-10 lines were seeded into 96-well plates at a density of 1 × 10^4 per well. After 24 h, the compounds were added at increasing concentrations (500–100–20-4–0.8–0.16–0.032–0 µM), and the cells were incubated at 37 °C in a humidified 5% CO2/95% air mixture for 48 h. Following incubation, the cells were washed twice with PBS, and 100 μL of 0.5 mg/mL MTT solution was added to each well. After 2 h of incubation, the MTT solution was removed, and the formazan crystals were dissolved in 50 μL of DMSO per well. Absorbance was then measured at 570 nm using a microplate ELISA reader. IC50 values, determined from three independent experiments conducted in triplicate, were calculated using SigmaPlot® software (version 11.0). The selectivity index (SI) of each compound in each cell line was determined by calculating the ratio of the IC50 values for MCF-10 and cancer cell lines. Compounds were considered selective if SI values were equal to or greater than 3 [46].
Background: Formazan colour is commonly taken as a measure of viable cells.

A further assay deals with MCF-10 cells. The experiment in a line: MTT cytotoxicity assay on non-tumoral MCF-10 cells. The settings on record: IC50 ± SD, three experiments in triplicate. In kind it is cell-based, human. The procedure:
as §1, §2, §3

[1] abbreviates: Homo sapiens, MCF10, 48 h incubation.

As a reminder, the IC50 is the concentration that inhibits the measured activity by half. Low readings indicate inhibition by little substance, high ones a need for much substance.

As for `COc1ccc([C@@H](O)[C@H]2C(C)=CCC3C(C)(C)CCC[C@@]32C)c(OC)c1` (stereo partly drawn) [Compound 10a, (1S)-(2,4-Dimethoxyphenyl)((1S,8aS)-2,5,5,8a-tetramethyl-1,4,4a,5,6,7,8,8a-octahydronaphthalen-1-yl) methanol], the half-inhibitory concentration (IC50) in the assay with MCF-7 cells (Homo sapiens, MCF7) is 74.2 ± 7 µM; with MCF-10 cells (setting [1]), 53.2 ± 10 µM. For the same compound, in the assay on MCF-7 cells, the “Selectivity Index (SI)” value is on record as 0.7.

For the compound `COc1ccc(OC)c([C@@H](O)[C@H]2C(C)=CCC3C(C)(C)CCC[C@@]32C)c1` (stereo partly drawn) [Compound 10b, (1S)-(2,5-Dimethoxyphenyl)((1S,8aS)-2,5,5,8a-tetramethyl-1,4,4a,5,6,7,8,8a-octahydronaphthalen-1-yl)methanol], the IC50 in the assay with MCF-7 cells (Homo sapiens, MCF7) worked out at 131 ± 26.6 µM; in the assay on MCF-10 cells (setting [1]), 10.1 ± 3 µM. Besides, the “Selectivity Index (SI)” value in the assay on MCF-7 cells was determined as 0.1.

Take `COc1cc(OC)cc([C@@H](O)[C@H]2C(C)=CCC3C(C)(C)CCC[C@@]32C)c1` (stereo partly drawn) [Compound 10d, (1S)-(3,5-Dimethoxyphenyl)((1S,8aS)-2,5,5,8a-tetramethyl-1,4,4a,5,6,7,8,8a-octahydronaphthalen-1-yl)methanol]: the IC50 with MCF-7 cells (Homo sapiens, MCF7) turned out to be 126 ± 11.5 µM; in the assay on MCF-10 cells (setting [1]), 12.3 ± 3.1 µM. Besides, the “Selectivity Index (SI)” value in the assay with MCF-7 cells worked out at 0.1.

`COc1ccc(C[C@H]2C(C)=CCC3C(C)(C)CCC[C@@]32C)c(OC)c1` (stereo partly drawn) [Compound 11a, (4aS,5S)-5-(2,4-Dimethoxybenzyl)-1,1,4a,6-tetramethyl-1,2,3,4,4a,5,8,8a-octahydronaphthalene]: the IC50 with MCF-7 cells (Homo sapiens, MCF7) is 75.2 ± 11.3 µM; with MCF-10 cells (setting [1]), 76.7 ± 3 µM. Besides, the “Selectivity Index (SI)” value in the assay with MCF-7 cells is 1.0.

On to `COc1ccc(OC)c(C[C@H]2C(C)=CCC3C(C)(C)CCC[C@@]32C)c1` (stereo partly drawn) [Compound 11b, (4aS,5S)-5-(2,5-Dimethoxybenzyl)-1,1,4a,6-tetramethyl-1,2,3,4,4a,5,8,8a-octahydronaphthalene], for which the 50% inhibitory concentration (IC50) in the assay with MCF-7 cells (Homo sapiens, MCF7) was 133 ± 14.9 µM; in the assay on MCF-10 cells (setting [1]), 54.4 ± 3.5 µM. For the same compound, the “Selectivity Index (SI)” value in the assay with MCF-7 cells turned out to be 0.4.

Regarding `COc1ccc(C(=O)[C@H]2C(C)=CCC3C(C)(C)CCC[C@@]32C)c(OC)c1` (stereo partly drawn) [Compound 12a, (2,4-Dimethoxyphenyl)((1S,8aS)-2,5,5,8a-tetramethyl-1,4,4a,5,6,7,8,8a-octahydronaphthalen-1-yl)methanone], the 50% inhibitory concentration (IC50) is 56.2 ± 7.3 µM in the assay on MCF-7 cells (Homo sapiens, MCF7) and 45.4 ± 4.8 µM with MCF-10 cells (setting [1]). Further, in the assay on MCF-7 cells, the “Selectivity Index (SI)” value came to 0.8.

On to `COc1ccc(OC)c(C(=O)[C@H]2C(C)=CCC3C(C)(C)CCC[C@@]32C)c1` (stereo partly drawn) [Compound 12b, (2,5-Dimethoxyphenyl)((1S,8aS)-2,5,5,8a-tetramethyl-1,4,4a,5,6,7,8,8a-octahydronaphthalen-1-yl)methanone], for which the IC50 with MCF-7 cells (Homo sapiens, MCF7) is 88.1 ± 19.9 µM; in the assay with MCF-10 cells (setting [1]), 72.7 ± 4.3 µM. Further, in the assay with MCF-7 cells, the “Selectivity Index (SI)” value was 0.8.

With `COc1cc(OC)cc(C(=O)[C@H]2C(C)=CCC3C(C)(C)CCC[C@@]32C)c1` (stereo partly drawn) [Compound 12d, (3,5-Dimethoxyphenyl)((1S,8aS)-2,5,5,8a-tetramethyl-1,4,4a,5,6,7,8,8a-octahydronaphthalen-1-yl)methanone], the IC50 in the assay on MCF-7 cells (Homo sapiens, MCF7) was 112 ± 25.4 µM; in the assay with MCF-10 cells (setting [1]), 107 ± 15.4 µM. Also, the “Selectivity Index (SI)” value in the assay on MCF-7 cells worked out at 1.0.

For the compound `COc1ccc(/C=C2\C(C)=CCC3C(C)(C)CCC[C@]23C)c(OC)c1` (stereo partly drawn) [Compound 13a, (4aS)-5-((E)-2,4-Dimethoxybenzylidene)-1,1,4a,6-tetramethyl-1,2,3,4,4a,5,8,8a-octahydronaphthalene], the IC50 with MCF-7 cells (Homo sapiens, MCF7) was determined as 48.9 ± 8 µM; in the assay with MCF-10 cells (setting [1]), 70.9 ± 15.1 µM. Also, in the assay with MCF-7 cells, the “Selectivity Index (SI)” value turned out to be 1.4.

On to `COc1cc(OC)c2c(c1)[C@]1(C)CCC3C(C)(C)CCC[C@]3(C)C1=C2` (stereo partly drawn) [Compound 14a, (6aR,11bS)-8,10-Dimethoxy-4,4,6a,11b-tetramethyl-2,3,4,4a,5,6,6a,11b-octahydro-1H-benzo[a]fluorene], for which the IC50 with MCF-7 cells (Homo sapiens, MCF7) is 8.4 ± 1.8 µM; in the assay with MCF-10 cells (setting [1]), 52.4 ± 3.5 µM. Moreover, the “Selectivity Index (SI)” value with MCF-7 cells is given as 6.3.

Turning to `COc1cc2c(c(OC)c1)[C@]1(C)CCC3C(C)(C)CCC[C@]3(C)C1=C2` (stereo partly drawn) [Compound 14d, (6aR,11bS)-7,9-Dimethoxy-4,4,6a,11b-tetramethyl-2,3,4,4a,5,6,6a,11b-octahydro-1H-benzo[a]fluorene], the IC50 with MCF-7 cells (Homo sapiens, MCF7) turned out to be 120 ± 29.8 µM; in the assay with MCF-10 cells (setting [1]), 31.4 ± 4.6 µM. Moreover, the “Selectivity Index (SI)” value in the assay with MCF-7 cells came out at 0.3.

Take “(4aS,5S)-5-(3,5-Dimethoxybenzyl)-1,1,4a,6-tetramethyl-1,2,3,4,4a,5,8,8a-octahydronaphthalene [Compound 11d]”: the half-maximal inhibitory concentration (IC50) in the assay on MCF-7 cells came to 187 ± 9 µM; in the assay with MCF-10 cells (48 h incubation), 165 ± 12.5 µM.

(Values after publication PMC12111648, “New Dimethoxyaryl-Sesquiterpene Derivatives with Cytotoxic Activity Against MCF-7 Breast Cancer Cells: From Synthesis to Topoisomerase I/II Inhibition and Cell Death Mechanism Studies” (International Journal of Molecular Sciences, 2025).)
